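Cells were grown in 96-well plates and exposed to each compound for 48 hours at five concentrations; endpoints were interpolated linearly between bracketing concentrations, or set to the highest concentration if not reached. At the TGI there is no net growth.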
Key:
Experiment in all cases: inhibition of tumour cell growth, NCI panel, 48 h
[1] = system: 786-0 renal
[2] = system: A498 renal
[3] = system: A549 NSCLC
[4] = system: ACHN renal
[5] = system: BT-549 breast
[6] = system: CAKI-1 renal
[7] = system: CCRF-CEM leukemia
[8] = system: COLO 205 colon
[9] = system: DU-145 prostate
[10] = system: EKVX NSCLC
[11] = system: HCC-2998 colon
[12] = system: HCT-116 colon
[13] = system: HCT-15 colon
[14] = system: HL-60(TB) leukemia
[15] = system: HOP-62 NSCLC
[16] = system: HOP-92 NSCLC
[17] = system: HS 578T breast
[18] = system: HT29 colon
[19] = system: IGROV1 ovarian
[20] = system: K-562 leukemia
[21] = system: KM12 colon
[22] = system: LOX IMVI melanoma
[23] = system: M14 melanoma
[24] = system: MALME-3M melanoma
[25] = system: MCF7 breast
[26] = system: MDA-MB-231 breast
[27] = system: MDA-MB-435
[28] = system: MDA-N
[29] = system: MOLT-4 leukemia
[30] = system: NCI-H23 lung
[31] = system: NCI-H460 lung
[32] = system: NCI-H522 lung
[33] = system: NCI/ADR-RES ovarian
[34] = system: OVCAR-3 ovarian
[35] = system: OVCAR-5 ovarian
[36] = system: OVCAR-8 ovarian
[37] = system: PC-3 prostate
[38] = system: RPMI-8226 leukemia
[39] = system: RXF 393 renal
[40] = system: SF-268 CNS
[41] = system: SF-295 CNS
[42] = system: SF-539 CNS
[43] = system: SK-MEL-2 melanoma
[44] = system: SK-MEL-28 melanoma
[45] = system: SK-MEL-5 melanoma
[46] = system: SK-OV-3 ovarian
[47] = system: SN12C renal
[48] = system: SNB-19 CNS
[49] = system: SNB-75 CNS
[50] = system: SR leukemia
[51] = system: SW-620 colon
[52] = system: T-47D breast
[53] = system: TK-10 renal
[54] = system: U251 CNS
[55] = system: UACC-257 melanoma
[56] = system: UACC-62 melanoma
[57] = system: UO-31 renal
[58] = system: NCI-H226 lung
[59] = system: OVCAR-4 ovarian

## O=C1Nc2cccc(Cl)c2/C1=C\c1c(Cl)nc2sccn12
[1]
  TGI: 24.6 µM
[2]
  TGI: > 100 µM
[3]
  TGI: > 100 µM
[4]
  TGI: 29.4 µM
[5]
  TGI: 74.9 µM
[6]
  TGI: > 100 µM
[7]
  TGI: > 100 µM
[8]
  TGI: > 100 µM
[9]
  TGI: > 100 µM
[10]
  TGI: > 100 µM
[11]
  TGI: > 100 µM
[12]
  TGI: > 100 µM
[13]
  TGI: > 100 µM
[14]
  TGI: > 100 µM
[15]
  TGI: 33.8 µM
[16]
  TGI: 46.2 µM
[17]
  TGI: 57.5 µM
[18]
  TGI: > 100 µM
[19]
  TGI: > 100 µM
[20]
  TGI: > 100 µM
[21]
  TGI: > 100 µM
[22]
  TGI: > 100 µM
[23]
  TGI: > 100 µM
[24]
  TGI: > 100 µM
[25]
  TGI: > 100 µM
[26]
  TGI: 40.3 µM
[27]
  TGI: > 100 µM
[28]
  TGI: > 100 µM
[29]
  TGI: > 100 µM
[30]
  TGI: 66.3 µM
[31]
  TGI: > 100 µM
[32]
  TGI: > 100 µM
[33]
  TGI: > 100 µM
[34]
  TGI: > 100 µM
[35]
  TGI: > 100 µM
[36]
  TGI: > 100 µM
[37]
  TGI: > 100 µM
[38]
  TGI: > 100 µM
[39]
  TGI: 29.6 µM
[40]
  TGI: 52.5 µM
[41]
  TGI: > 100 µM
[42]
  TGI: 18.8 µM
[43]
  TGI: 30.2 µM
[44]
  TGI: > 100 µM
[45]
  TGI: > 100 µM
[46]
  TGI: 31 µM
[47]
  TGI: > 100 µM
[48]
  TGI: 39.7 µM
[49]
  TGI: 26.3 µM
[50]
  TGI: > 100 µM
[51]
  TGI: > 100 µM
[52]
  TGI: > 100 µM
[53]
  TGI: 24.6 µM
[54]
  TGI: 21.5 µM
[55]
  TGI: > 100 µM
[56]
  TGI: > 100 µM
[57]
  TGI: > 100 µM

## O=P(Oc1ccccc1)(Oc1ccccc1)Oc1c[nH]c2ccccc12
[1]
  TGI: 33.1 µM
[2]
  TGI: 29.1 µM
[3]
  TGI: 31 µM
[5]
  TGI: 34.4 µM
[6]
  TGI: 23.4 µM
[7]
  TGI: 1.5 µM
[8]
  TGI: 13.9 µM
[9]
  TGI: > 100 µM
[10]
  TGI: 0.907 µM
[11]
  TGI: 17.9 µM
[12]
  TGI: 38.8 µM
[13]
  TGI: 28.8 µM
[14]
  TGI: 44.1 µM
[15]
  TGI: 36.3 µM
[16]
  TGI: 7.15 µM
[17]
  TGI: 40.8 µM
[18]
  TGI: 22 µM
[19]
  TGI: 20.7 µM
[20]
  TGI: 36.5 µM
[21]
  TGI: > 100 µM
[22]
  TGI: 49.9 µM
[23]
  TGI: 26.8 µM
[24]
  TGI: 37.5 µM
[25]
  TGI: 25.3 µM
[26]
  TGI: 31.3 µM
[27]
  TGI: 28.3 µM
[28]
  TGI: 24.3 µM
[29]
  TGI: 46.6 µM
[58]
  TGI: 31.3 µM
[30]
  TGI: 25.8 µM
[31]
  TGI: 26.7 µM
[33]
  TGI: 18 µM
[34]
  TGI: 39.1 µM
[59]
  TGI: 14.5 µM
[35]
  TGI: 4.56 µM
[36]
  TGI: 47.5 µM
[37]
  TGI: 8.26 µM
[38]
  TGI: 1.54 µM
[39]
  TGI: 29.2 µM
[40]
  TGI: 24.3 µM
[41]
  TGI: 13.1 µM
[42]
  TGI: 24 µM
[43]
  TGI: 20.2 µM
[44]
  TGI: 26.6 µM
[45]
  TGI: 24.8 µM
[46]
  TGI: 18.3 µM
[47]
  TGI: 26 µM
[48]
  TGI: 27.7 µM
[49]
  TGI: 23.9 µM
[50]
  TGI: > 100 µM
[51]
  TGI: 36 µM
[52]
  TGI: 52.9 µM
[53]
  TGI: 28.3 µM
[54]
  TGI: 31.9 µM
[55]
  TGI: 21.8 µM
[56]
  TGI: 22 µM
[57]
  TGI: 19.7 µM

## CC(C)C1OC(=O)C=C1Sc1ccccc1 (centres undefined)
[1]
  TGI: > 100 µM
[2]
  TGI: > 100 µM
[3]
  TGI: > 100 µM
[4]
  TGI: > 100 µM
[5]
  TGI: > 100 µM
[6]
  TGI: > 100 µM
[7]
  TGI: > 100 µM
[8]
  TGI: > 100 µM
[9]
  TGI: > 100 µM
[10]
  TGI: > 100 µM
[11]
  TGI: > 100 µM
[12]
  TGI: > 100 µM
[13]
  TGI: > 100 µM
[14]
  TGI: > 100 µM
[15]
  TGI: > 100 µM
[17]
  TGI: > 100 µM
[18]
  TGI: > 100 µM
[19]
  TGI: > 100 µM
[20]
  TGI: > 100 µM
[21]
  TGI: > 100 µM
[22]
  TGI: > 100 µM
[23]
  TGI: > 100 µM
[24]
  TGI: > 100 µM
[25]
  TGI: > 100 µM
[26]
  TGI: > 100 µM
[27]
  TGI: > 100 µM
[28]
  TGI: > 100 µM
[29]
  TGI: > 100 µM
[58]
  TGI: > 100 µM
[31]
  TGI: > 100 µM
[32]
  TGI: > 100 µM
[34]
  TGI: > 100 µM
[59]
  TGI: > 100 µM
[35]
  TGI: > 100 µM
[36]
  TGI: > 100 µM
[37]
  TGI: > 100 µM
[38]
  TGI: > 100 µM
[39]
  TGI: > 100 µM
[40]
  TGI: > 100 µM
[41]
  TGI: > 100 µM
[42]
  TGI: > 100 µM
[43]
  TGI: > 100 µM
[44]
  TGI: > 100 µM
[45]
  TGI: > 100 µM
[46]
  TGI: > 100 µM
[47]
  TGI: > 100 µM
[48]
  TGI: > 100 µM
[49]
  TGI: > 100 µM
[50]
  TGI: > 100 µM
[51]
  TGI: > 100 µM
[52]
  TGI: > 100 µM
[53]
  TGI: > 100 µM
[54]
  TGI: > 100 µM
[55]
  TGI: > 100 µM
[56]
  TGI: > 100 µM

## CCOc1ccc(/C(O)=C/c2nc3ccccc3nc2/C=C(\O)c2ccc(OCC)cc2)cc1
[1]
  TGI: > 100 µM
[2]
  TGI: > 100 µM
[3]
  TGI: > 100 µM
[4]
  TGI: > 100 µM
[5]
  TGI: > 100 µM
[6]
  TGI: > 100 µM
[7]
  TGI: > 100 µM
[8]
  TGI: > 100 µM
[9]
  TGI: > 100 µM
[10]
  TGI: > 100 µM
[11]
  TGI: > 100 µM
[12]
  TGI: > 100 µM
[13]
  TGI: > 100 µM
[14]
  TGI: > 100 µM
[15]
  TGI: > 100 µM
[16]
  TGI: > 100 µM
[17]
  TGI: > 100 µM
[18]
  TGI: > 100 µM
[19]
  TGI: > 100 µM
[20]
  TGI: > 100 µM
[22]
  TGI: > 100 µM
[23]
  TGI: > 100 µM
[24]
  TGI: > 100 µM
[25]
  TGI: > 100 µM
[26]
  TGI: > 100 µM
[27]
  TGI: > 100 µM
[28]
  TGI: > 100 µM
[29]
  TGI: > 100 µM
[58]
  TGI: > 100 µM
[30]
  TGI: > 100 µM
[31]
  TGI: > 100 µM
[32]
  TGI: > 100 µM
[34]
  TGI: > 100 µM
[59]
  TGI: > 100 µM
[35]
  TGI: > 100 µM
[37]
  TGI: > 100 µM
[38]
  TGI: > 100 µM
[39]
  TGI: > 100 µM
[40]
  TGI: > 100 µM
[41]
  TGI: > 100 µM
[42]
  TGI: > 100 µM
[43]
  TGI: > 100 µM
[44]
  TGI: > 100 µM
[45]
  TGI: > 100 µM
[46]
  TGI: > 100 µM
[47]
  TGI: > 100 µM
[48]
  TGI: > 100 µM
[50]
  TGI: 26.6 µM
[51]
  TGI: > 100 µM
[52]
  TGI: > 100 µM
[53]
  TGI: > 100 µM
[54]
  TGI: > 100 µM
[55]
  TGI: > 100 µM
[56]
  TGI: > 100 µM
[57]
  TGI: > 100 µM
